Experiment [1] relates to MCF7. The experiment can be described thus: MTT assay growth inhibition. Format: cell-based. The settings on record: Homo sapiens, 72 h, read-out: 50% growth inhibition concentration (GI50). The procedure: (§1) The cytotoxicity of the tested substances was tested using the MTT (3-(4,5-dimethylthiazol-2-yl)-2,5-diphenyltetrazolium bromide) assay, with some modifications, and 2500 cells per well for the MCF7, HEK293T, and A549 cell lines or 4000 cells per well for the VA-13 cell line were plated in 135 µL of DMEM-F12 media (Gibco, Waltham, MA, USA) in a 96-well plate and incubated in the 5% CO2 incubator for first 16 h, without treatment. Then, 15 µL of media-DMSO solutions of the tested substances was added to the cells (the final DMSO concentrations in the media were 1% or less) and treated cells for 72 h with 25 nM–50 µM (eight dilutions) of our substances (triplicate each), and serial DMSO dilutions and doxorubicin were used as controls. The MTT reagent (Paneco LLC, Moscow, Russia) was then added to cells to a final concentration of 0.5 g/L (10× stock solution in PBS was used) and incubated for 2.5 h at 37 °C in the incubator under an atmosphere of 5% CO2. The MTT solution was then discarded, and 140 µL of DMSO (PharmaMed LLC, Krasnodarsky Krai, Russia) was added. The plates were swayed on a shaker (60 rpm) to dissolve the formazan. The absorbance was measured using a microplate reader (VICTOR X5 Light Plate Reader, PerkinElmer, Waltham, MA, USA) at a wavelength of 565 nm (in order to measure formazan concentration). The results were used to construct a dose-response graph and to estimate the CC50 value.
Background: Formazan colour is commonly taken as a measure of viable cells.

The test system of experiment [2] is HEK293T. The experiment can be described thus: MTT assay growth inhibition. The settings on record: Homo sapiens, HEK-293T, 72 h, read-out: 50% growth inhibition concentration (GI50). The experiment is classed as cell-based. The procedure:
as §1

In experiment [3] the test system is VA13. The experiment can be described thus: MTT assay growth inhibition. Format: cell-based. The conditions noted are these: VA-13, 72 h, read-out: 50% growth inhibition concentration (GI50). As to the method: as §1
Experiment [4] deals with A549. The experiment can be described thus: MTT assay growth inhibition. Format: cell-based, human. The settings on record: Homo sapiens, A549; MTT, 72 h; read-out: 50% growth inhibition concentration (GI50). The procedure: as §1
Experiment [5] concerns B. subtilis pHT01-cat. Briefly: MIC determination, broth microdilution. Format: cell-based. The settings on record: Bacillus subtilis, PHT01CAT. The procedure: (§2) E. coli ∆tolC CHL-resistant strain harboring plasmid encoding for chloramphenicol acetyltransferase (cat) (pCA24N-LacZ) and the control E. coli ∆tolC strain was used to evaluate the inhibitory effect of the compounds. CHL-resistant strains of B. subtilis pHT01-cat and B. subtilis pHT01-cfr were prepared by means of a transformation of a B. subtilis 168 strain with plasmids harboring the cat and cfr genes (chloramphenicol-florfenicol resistance) gene. The cfr gene encodes for the methyltransferase, which catalyzes the methylation of […] in the 23S rRNA and causes resistance to a variety of ribosome-targeting antibiotics that bind in the A site of the bacterial ribosome.
(§3) A standard laboratory strain of B. subtilis 168 was used to obtain the CHL-resistant strains, B. subtilis pHT01-CAT and B. subtilis pHT01-cfr, by means of transformation with the corresponding plasmids. Competent cell preparation and transformation procedures were conducted, as reported in [74, 75]. The desired colonies were selected at 10 µg/mL of CHL for B. subtilis pHT01 and 5 µg/mL or 3.2 µg/mL of CHL for B. subtilis pHT01-cfr.
(§4) The MICs for CAM-Cn-TPP and Cn-TPP were determined by Mueller-Hinton broth microdilution, as recommended by CLSI in the Methods for Dilution Antimicrobial Susceptibility Tests for Bacteria that Grow Aerobically, Approved Standard, 9th ed., CLSI document M07-A9, using in-house-prepared panels. The compounds were diluted in a 96-well microtiter plate to final concentrations ranging from 0.5 to 360 μM in a 250-µL aliquot of the bacterial suspension, followed by incubation at 37 °C or 30 °C for 18 h. […] The bacterial growth was observed visually alongside OD measurements. The experiments were carried out in triplicate.

Experiment [6] concerns B. subtilis pHT01-cfr. The experiment can be described thus: MIC determination, broth microdilution. Format: cell-based. The conditions noted are these: Bacillus subtilis, PHT01CFR. The procedure: as §2, §3, §4
On the technique in general: In broth dilution the organism is exposed to a series of concentrations in liquid medium.

Experiment [7] has as its system E. coli ∆tolC-CAT. The experiment can be described thus: MIC determination, broth microdilution. Format: cell-based. The settings on record: Escherichia coli. As to the method:
as §2
(§5) A standard laboratory strain of E. coli JW5503, with the deletion of the tolC gene, referred to here as the ∆tolC strain, was used to obtain the ∆tolC pCA24N-LacZ strain by means of transformation with the plasmid pCA24N-LacZ-harboring chloramphenicol acetyltransferase (cat) gene.
as §4

Experiment [8] concerns E. coli ∆tolC. Briefly: MIC determination, broth microdilution. Format: cell-based. The settings on record: Escherichia coli. As to the method:
as §2, §5, §4

The subject of experiment [9] is Listeria monocytogenes. Briefly: MIC determination, broth microdilution. The experiment is classed as cell-based.
Source text: (§6) Standard laboratory strains of Bacillus subtilis subs. subtilis Cohn 1872, stains BR151, and 168, Staphylococcus aureus subsp. aureus Rosenbach 1884 strains JCM 2151 and entry MC#144 (from the Microorganisms Collection of the Moscow State University), Listeria monocytogenes Pirie 1940, Mycobacterium smegmatis Lehmann and Neumann 1899 (MC#377), and Escherichia coli Castellani and Chalmers 1919, strain JW5503 (with the deletion of tolC gene), which are resistant to the chloramphenicol strains, J53rif, C600rif/pIB55-1, C600rif/pIP162-1, and C600recA naI, were used.
(§7) S. aureus was grown in Bacto Tryptic Soy Broth, L. monocytogenes in Brain Heart Infusion Broth, and E. coli in LB. Bacterial cells were grown at 30 °C or 37 °C in the appropriate medium at a 140 rpm shaking frequency.
as §4

Experiment [10] deals with Staphylococcus aureus. Briefly: MIC determination, broth microdilution. Format: cell-based.
Source text: as §6, §7, §4

The subject of experiment [11] is Bacillus subtilis. Briefly: MIC determination, broth microdilution. The experiment is classed as cell-based.
Source text: as §6, §4

The test system of experiment [12] is Mycobacterium smegmatis. The experiment can be described thus: MIC determination, broth microdilution. The experiment is classed as cell-based. The settings on record: Mycolicibacterium smegmatis.
Source text: as §6, §4

Experiment [13] has as its system E. coli BW25113 ΔtolC pDualrep2 reporter strain. The experiment can be described thus: pDualrep2 double fluorescent reporter assay on agar plate. Format: cell-based. The conditions noted are these: for inhibition of cell growth (inhibition zone) of the reporter strain: 10 mM, 1.5 μL spotted on agar lawn; for induction of reporters (Katushka2S: ribosome stalling; RFP: DNA damage): compound spotted on agar lawn, overnight 37 °C. The source says: Next, we tested the effects of CAM-C10-TPP and CAM-C14-TPP in bacterial cells using an E. coli ∆tolC-based reporter system, which is designed to screen inhibitors targeting either protein synthesis or DNA replication. In this reporter system, the gene of the far-red fluorescent protein, katushka2S, is inserted downstream of the genetically modified tryptophan attenuator, making it possible to express Katushka2S only upon exposure to ribosome-stalling compounds (Figure 2B, CHL and ERY, red pseudocolor rings).
Reporter strain […] [71] ΔtolC (BW25113) pDualrep2 was used, as previously described. The tested antibiotics, CAM-C10-TPP (10 mM, 1.5 μL), CAM-C14-TPP (10 mM, 1.5 μL), C10-TPP (10 mM, 1.5 μL), C14-TPP (10 mM, 1.5 μL), CAM (10 mM, 1.5 μL), CAM-Ac (10 mM, 1.5 μL), chloramphenicol (CHL, 2 mM, 1 μL), erythromycin (Ery, 7 mM, 1 μL), and levofloxacin (Lev, 70 nM, 1 μL), were applied to an agar plate that already contained a lawn of the reporter strain. After being incubated overnight at 37 °C, the plate was scanned by ChemiDoc (Bio-Rad) in the modes, “Cy3-blot” for RFP and “Cy5-blot” for Katushka2S.

For experiment [14], the system named is Escherichia coli J53rif. Briefly: MIC determination, CHL resistant E. coli strains. The experiment is classed as cell-based.
Source text: as §6, §4

Experiment [15] relates to Escherichia coli C600recA naI. The experiment can be described thus: MIC determination, CHL resistant E. coli strains. Format: cell-based. The conditions noted are these: C600RECANAI.
Source text: as §6, §4

Experiment [16] relates to Escherichia coli C600rif/pIB55-1. Briefly: MIC determination, CHL resistant E. coli strains. The experiment is classed as cell-based.
Source text: as §6, §4

For experiment [17], the system named is Escherichia coli C600rif/pIP162-1. Briefly: MIC determination, CHL resistant E. coli strains. Format: cell-based.
Source text: as §6, §4

Consider six compounds from publication PMC8145938, “Triphenilphosphonium Analogs of Chloramphenicol as Dual-Acting Antimicrobial and Antiproliferating Agents” (Antibiotics, 2021).

For the compound `COc1cccc2c1C(=O)c1c(O)c3c(c(O)c1C2=O)C[C@@](O)(C(=O)CO)C[C@@H]3O[C@H]1C[C@H](N)[C@H](O)[C@H](C)O1` [Doxorubicin, doxorubicin], the GI50 in experiment [1] is 0.04 ± 0.01 µM; in [2] it was 0.007 ± 0.001 µM; in experiment [3] it was 0.18 ± 0.04 µM; in experiment [4], 0.04 ± 0.01 µM.
In the case of `CCCCCCCCCCCCCC[P+](c1ccccc1)(c1ccccc1)c1ccccc1` [C14-TPP, tetradecyl(triphenyl)phosphonium bromide], the MIC in [5] came out at 1.6 µM; in experiment [6] it was 0.8 µM; in experiment [7], 6 µM; in [8], 1.6 µM; in [9], 2 µM; in experiment [10] it was 1.6 µM. Moreover, the MIC in [11] is 8 µM; in experiment [12], 4 µM. For the same compound, the GI50 in experiment [1] was determined as 0.02 ± 0.01 µM; in experiment [2], 0.03 ± 0.02 µM; in experiment [3], 0.07 ± 0.05 µM; in experiment [4] it was 0.025 ± 0.009 µM. Moreover, in [13], the “inhibition of cell growth (inhibition zone) of the reporter strain” value was “inhibit bacterial cell growth”. Further, the “induction of reporters (Katushka2S: ribosome stalling; RFP: DNA damage)” value (“induction of reporters” below) in experiment [13] is “do not induce either of the two reporters”.
Take `CC(=O)N[C@H](CO)[C@H](O)c1ccc([N+](=O)[O-])cc1` [CAM-Ac, N-acetyl-chloramphenicol amine]: in [13], the “induction of reporters” value is recorded as “neither the induction of either of the two reporters”.
`CCCCCCCCCC[P+](c1ccccc1)(c1ccccc1)c1ccccc1` [C10-TPP, decyl(triphenyl)phosphonium bromide]: the MIC in experiment [5] is 1.6 µM; in experiment [6], 0.8 µM; in experiment [14], 110 µM; in experiment [15], 136 µM; in [16], 67 µM; in [17], 93 µM. For the same compound, the MIC in experiment [7] is 3 µM; in [8] it was 3 µM; in [9], 5 µM; in [10] it was 2 µM; in experiment [11], 2 µM; in [12], less than 2 µM. In addition, the GI50 in experiment [1] amounted to 0.21 ± 0.03 µM; in experiment [2], 0.08 ± 0.01 µM; in experiment [3], 0.27 ± 0.05 µM; in [4], 0.07 ± 0.01 µM. The “inhibition of cell growth (inhibition zone) of the reporter strain” value in experiment [13] is on record as “inhibit bacterial cell growth”. The “induction of reporters” value in experiment [13] is on record as “do not induce either of the two reporters”.
`CC[C@H]1OC(=O)[C@H](C)[C@@H](O[C@H]2C[C@@](C)(OC)[C@@H](O)[C@H](C)O2)[C@H](C)[C@@H](O[C@@H]2O[C@H](C)C[C@H](N(C)C)[C@H]2O)[C@](C)(O)C[C@@H](C)C(=O)[C@H](C)[C@@H](O)[C@]1(C)O` [ERY, erythromycin]: the “induction of reporters” value in experiment [13] is listed as “red pseudocolor rings are observed due to the expression of the fluorescent protein, Katushka2S (but not RFP)”.
With `C[C@H]1COc2c(N3CCN(C)CC3)c(F)cc3c(=O)c(C(=O)O)cn1c23` [LEV, levofloxacin], the “induction of reporters” value in experiment [13] is reported as “green pseudocolored rings”.

For orientation: MIC means the smallest concentration in the dilution series that meets the test's criterion for growth inhibition.
